Read-outs that look alike come from different tables or passages of the source.
Assays:
[1] = system: human platelet rich plasma (PRP), ADP-induced platelet aggregation; assay: ADP-induced platelet aggregation in human platelet rich plasma (Born turbidimetric method); type: cell-based; conditions: inducer ADP 5 µM, read-out: Antiplatelet aggregation activity, IC50, ADP
Description: (§1) The in vitro antiplatelet activity of the derivatives was evaluated using human platelet rich plasma (PRP)on an APACT 4004 aggregometerby Born’s reported turbidimetric method([16]). ADP (5 µM), arachidonic acid (1.25 mg/mL) and collagen (5 µM) were used as inducers of platelet aggregation. IC50 was defined as the concentration of the test compound that inhibits the platelet aggregation by 50%. The detailed procedure has been described in our previous works([11],[12],[17]).

[2] = system: human platelet rich plasma (PRP), arachidonic acid-induced platelet aggregation; assay: Arachidonic acid-induced platelet aggregation in human platelet rich plasma (Born turbidimetric method); type: cell-based; conditions: inducer arachidonic acid 1.25 mg/mL; for IC50: Platelet, read-out: Antiplatelet aggregation activity, IC50, AA
Description: as §1

[3] = system: human platelet rich plasma (PRP), collagen-induced platelet aggregation; assay: Collagen-induced platelet aggregation in human platelet rich plasma (Born turbidimetric method); type: cell-based; conditions: inducer collagen (5 µM); for IC50: Platelet, read-out: Antiplatelet aggregation activity, IC50, Collagen
Description: as §1

[4] = Cytotoxicity assay, MTT method; type: cell-based; conditions: mouse, fibroblast L929 cell line, 24 h of exposure
Description: (§2) The synthesized derivatives were assayed for their toxicity on Fibroblast L929 cell line by MTT [[…]] method. The compounds were initially screened at 100 µM concentration and IC50 was calculated for those showing more than 50% toxicity. The detailed procedure has been described in our previous work([18]).

[5] = system: Fibroblast L929 cell line; assay: Cytotoxicity assay, MTT method; type: cell-based; conditions: 24 h of exposure
Description: as §2

[6] = system: human platelet rich plasma (PRP), arachidonic acid-induced platelet aggregation; parameters: method as in PMID 23154304; conditions: inducer arachidonic acid, obtained in previous study, read-out: Antiplatelet aggregation activity, IC50, AA; cited from earlier work
[7] = system: human platelet rich plasma (PRP), ADP-induced platelet aggregation; parameters: method as in PMID 23154304; conditions: inducer ADP, obtained in previous study, read-out: Antiplatelet aggregation activity, IC50, ADP; cited from earlier work

| SMILES | melting point | IC50 [1] [µM] | IC50 [2] [µM] | IC50 [3] [µM] | IC50 at 24 h ([4]; L929 fibroblast cells) [µM] | IC50 at 24 h [4] [µM] | Cytotoxicity, IC50 [5] | Antiplatelet aggregation activity, IC50, AA [2] | Antiplatelet aggregation activity, IC50, Collagen [3] | IC50 [6] [µM] | IC50 [7] [µM] |
| --- | --- | --- | --- | --- | --- | --- | --- | --- | --- | --- | --- |
| O=C(NN=Cc1c[nH]c2ccccc12)c1ccccc1 [2a, Indole-3-carboxaldehyde benzoylhydrazone] | 238 to 241 °C | > 100 | > 100 | > 100 | > 100 |  |  |  |  |  |  |
| Clc1cccc(NN=Cc2c[nH]c3ccccc23)c1 [1d, Indole-3-carboxaldehyde 3-chlorophenylhydrazone] | 211 to 214 °C | > 100 | 28.1 | > 100 |  | 33.9 |  |  |  |  |  |
| O=C(NN=Cc1c[nH]c2ccc(Cl)cc12)c1cccc(Cl)c1 [3b, 5-Chloroindole-3-carboxaldehyde 3-chlorobenzoylhydrazone] | 230 to 233 °C | > 100 | > 100 | > 100 | 55.5 |  |  |  |  |  |  |
| CC(=O)Oc1ccccc1C(=O)O [Aspirin, reference compound] |  | > 100 | 30.3 | 9.7 |  |  |  |  |  |  |  |
| Cc1cccc(C(=O)NN=Cc2c[nH]c3ccccc23)c1 [2e, Indole-3-carboxaldehyde 3-methylbenzoylhydrazone] | 212 to 214 °C | > 100 | > 100 | > 100 | > 100 |  |  |  |  |  |  |
| O=C(NN=Cc1c[nH]c2ccccc12)c1ccc(Cl)cc1 [2c, Indole-3-carboxaldehyde 4-chlorobenzoylhydrazone] |  | > 100 | > 100 | > 100 | > 100 |  |  |  |  |  |  |
| O=C(N/N=C/c1c[nH]c2ccc(Cl)cc12)c1ccc(Cl)cc1 [3c] |  | > 100 | > 100 | > 100 | 71.3 |  |  |  |  |  |  |
| Fc1ccc(N/N=C/c2c[nH]c3ccccc23)cc1 [1b] |  | > 100 | 28.8 | > 100 | > 100 |  | not toxic to fibroblast cells |  |  |  |  |
| O=C(NN=Cc1c[nH]c2ccc(Cl)cc12)c1ccncc1 [3g, 5-Chloroindole-3-carboxaldehyde isonicotinoylhydrazone] | > 270 °C | > 100 | > 100 | > 100 | > 100 |  |  |  |  |  |  |
| Brc1ccc(N/N=C/c2c[nH]c3ccccc23)cc1 [1f] |  | 100 | 21.2 | > 100 | 59.8 |  |  | still acceptable |  |  |  |
| O=C(N/N=C/c1c[nH]c2ccc(Cl)cc12)c1ccccc1 [3a] |  | > 100 | > 100 | > 100 | > 100 |  |  |  |  |  |  |
| O=C(NN=Cc1c[nH]c2ccccc12)c1cccc(Cl)c1 [2b, Indole-3-carboxaldehyde 3-chlorobenzoylhydrazone] | 215 to 218 °C | > 100 | > 100 | > 100 | > 100 |  |  |  |  |  |  |
| Clc1ccccc1NN=Cc1c[nH]c2ccccc12 [1c, Indole-3-carboxaldehyde 2-chlorophenylhydrazone] |  | > 100 | 14.6 | 85.6 | 45.9 |  |  | still acceptable |  |  |  |
| COc1ccc2c(c1)c(CC(=O)O)c(C)n2C(=O)c1ccc(Cl)cc1 [Indometacin, reference compound] |  | > 100 | 3 | 1.5 |  |  |  |  |  |  |  |
| Cc1ccccc1NN=Cc1c[nH]c2ccccc12 [1g, Indole-3-carboxaldehyde 2-methylphenylhydrazone] | 176 to 178 °C | > 100 | 56.8 | 75.2 | 85.1 |  |  |  | moderate activity |  |  |
| O=C(N/N=C/c1c[nH]c2ccccc12)c1ccncc1 [2g] |  |  |  | > 100 | > 100 |  |  |  |  | > 100 | > 100 |
| C(=NNc1ccccc1)c1c[nH]c2ccccc12 [1a, indole-3-carboxaldehyde phenylhydrazone] |  |  |  | 38.8 | > 100 |  | not toxic to fibroblast cells |  | moderate activity | 10 | > 100 |
| Cc1ccc(C(=O)NN=Cc2c[nH]c3ccc(Cl)cc23)cc1 [3f, 5-Chloroindole-3-carboxaldehyde 4-methylbenzoylhydrazone] | 244 °C (dec.) | > 100 | > 100 | > 100 | 62.7 |  |  |  |  |  |  |
| O=C(NN=Cc1c[nH]c2ccc(Cl)cc12)c1ccc([N+](=O)[O-])cc1 [3d, 5-Chloroindole-3-carboxaldehyde 4-nitrobenzoylhydrazone] | > 270 °C | > 100 | > 100 | > 100 | > 100 |  |  |  |  |  |  |
| Clc1ccc(N/N=C/c2c[nH]c3ccccc23)cc1 [1e] |  | > 100 | 22.5 | 62.5 |  | 66.7 |  |  | moderate activity |  |  |
| O=C(NN=Cc1c[nH]c2ccccc12)c1ccc([N+](=O)[O-])cc1 [2d, Indole-3-carboxaldehyde 4-nitrobenzoylhydrazone] | 250 to 253 °C | > 100 | > 100 | > 100 | > 100 |  |  |  |  |  |  |
| Cc1ccc(NN=Cc2c[nH]c3ccccc23)cc1 [1h, Indole-3-carboxaldehyde 4-methylphenylhydrazone] |  | > 100 | 57.2 | > 100 | > 100 |  | not toxic to fibroblast cells |  |  |  |  |
| COc1ccc(NN=Cc2c[nH]c3ccccc23)cc1 [1i, Indole-3-carboxaldehyde 4-methoxyphenylhydrazone] |  | > 100 | 7.13 | > 100 | 74.5 |  |  |  |  |  |  |
| Cc1ccc(C(=O)NN=Cc2c[nH]c3ccccc23)cc1 [2f, Indole-3-carboxaldehyde 4-methylbenzoylhydrazone] | > 270 °C | > 100 | > 100 | > 100 | > 100 |  |  |  |  |  |  |
| Cc1cccc(C(=O)NN=Cc2c[nH]c3ccc(Cl)cc23)c1 [3e, 5-Chloroindole-3-carboxaldehyde 3-methylbenzoylhydrazone] | 226 to 228 °C | > 100 | > 100 | > 100 | 49.6 |  |  |  |  |  |  |

Reference: article PMC4673935, “Synthesis, Antiplatelet Activity and Cytotoxicity Assessment of Indole-Based Hydrazone Derivatives” (Iranian Journal of Pharmaceutical Research : IJPR, 2015)
